According to patent US8927533B2, “Thio derivatives bearing lactams as potent HDAC inhibitors and their uses as medicaments” (SIGMA-TAU Industrie Farmaceutiche Riunite S.p.A., priority 2011, dated 2015):
Where two headings read alike, the source gives them in different places.

Tests used:
Assay type in all cases: biochemical
[1] = biological target: T1, HDAC3 (complex of full length human HDAC3 with human NCOR2 amino acids 395-489) (Homo sapiens, UniProt O15379); experiment: HDAC enzymatic assay, HDAC3
T1 construct: complex of full length human HDAC3 with a C-terminal His-tag; His-tag (C); host or cells: baculovirus expression system
T1 sequence (O15379 whole entry, the tested form may be a part): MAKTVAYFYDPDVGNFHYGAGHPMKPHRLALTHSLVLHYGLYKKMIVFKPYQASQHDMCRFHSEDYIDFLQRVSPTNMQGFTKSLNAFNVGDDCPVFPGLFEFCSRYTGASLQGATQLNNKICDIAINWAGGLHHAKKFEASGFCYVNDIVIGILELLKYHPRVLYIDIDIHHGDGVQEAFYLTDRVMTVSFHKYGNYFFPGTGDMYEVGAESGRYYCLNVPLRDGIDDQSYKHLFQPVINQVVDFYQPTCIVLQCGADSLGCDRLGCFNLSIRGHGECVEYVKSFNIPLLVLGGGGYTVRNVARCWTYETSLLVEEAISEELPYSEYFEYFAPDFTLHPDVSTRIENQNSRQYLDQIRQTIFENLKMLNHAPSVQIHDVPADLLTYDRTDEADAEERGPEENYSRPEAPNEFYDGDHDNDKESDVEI
T1 sequence (Q9Y618 395-489 partner limits assumed): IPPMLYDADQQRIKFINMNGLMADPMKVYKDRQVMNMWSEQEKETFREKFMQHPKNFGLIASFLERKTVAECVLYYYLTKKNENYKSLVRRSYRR
Method: (§1) Each compound was dissolved in DMSO, and progressively diluted solutions were used for testing. […] Upon its deacetylation, the fluorophore was released given rise to fluorescence emission which was detected by a fluorimeter, and the IC50 values of the compounds were determined by analyzing dose-response inhibition curves.

HDAC7 = biological target: T2, HDAC7 (Homo sapiens, UniProt Q8WUI4); experiment: HDAC enzymatic assay, HDAC7
T2 sequence (Q8WUI4 1-952): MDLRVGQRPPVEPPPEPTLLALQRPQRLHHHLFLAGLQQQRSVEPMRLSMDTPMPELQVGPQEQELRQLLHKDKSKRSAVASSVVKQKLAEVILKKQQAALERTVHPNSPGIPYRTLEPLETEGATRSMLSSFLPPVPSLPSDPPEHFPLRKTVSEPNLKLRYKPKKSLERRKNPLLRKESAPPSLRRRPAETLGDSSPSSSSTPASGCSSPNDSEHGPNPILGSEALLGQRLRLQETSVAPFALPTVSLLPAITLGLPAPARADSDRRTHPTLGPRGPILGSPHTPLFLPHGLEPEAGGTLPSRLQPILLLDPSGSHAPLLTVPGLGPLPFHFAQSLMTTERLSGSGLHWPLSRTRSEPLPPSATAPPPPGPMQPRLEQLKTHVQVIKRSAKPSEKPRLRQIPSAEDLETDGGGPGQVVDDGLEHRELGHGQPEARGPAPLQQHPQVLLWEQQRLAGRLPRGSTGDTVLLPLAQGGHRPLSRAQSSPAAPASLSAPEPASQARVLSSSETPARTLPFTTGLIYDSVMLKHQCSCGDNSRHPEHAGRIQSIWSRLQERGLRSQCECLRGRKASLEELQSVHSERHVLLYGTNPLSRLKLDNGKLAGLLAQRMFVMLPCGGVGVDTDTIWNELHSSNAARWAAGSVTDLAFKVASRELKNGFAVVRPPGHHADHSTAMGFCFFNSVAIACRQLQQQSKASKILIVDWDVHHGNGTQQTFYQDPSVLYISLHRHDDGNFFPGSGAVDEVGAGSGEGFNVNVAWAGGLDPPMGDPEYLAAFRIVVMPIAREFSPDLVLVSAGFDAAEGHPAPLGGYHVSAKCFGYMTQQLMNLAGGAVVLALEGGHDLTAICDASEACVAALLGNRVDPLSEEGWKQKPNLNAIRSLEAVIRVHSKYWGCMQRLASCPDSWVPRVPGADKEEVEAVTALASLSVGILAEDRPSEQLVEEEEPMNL
Method: as §1

HDAC9 = HDAC9 (Homo sapiens, UniProt Q9UKV0); experiment: HDAC enzymatic assay, HDAC9
HDAC9, sequence (Q9UKV0 whole entry): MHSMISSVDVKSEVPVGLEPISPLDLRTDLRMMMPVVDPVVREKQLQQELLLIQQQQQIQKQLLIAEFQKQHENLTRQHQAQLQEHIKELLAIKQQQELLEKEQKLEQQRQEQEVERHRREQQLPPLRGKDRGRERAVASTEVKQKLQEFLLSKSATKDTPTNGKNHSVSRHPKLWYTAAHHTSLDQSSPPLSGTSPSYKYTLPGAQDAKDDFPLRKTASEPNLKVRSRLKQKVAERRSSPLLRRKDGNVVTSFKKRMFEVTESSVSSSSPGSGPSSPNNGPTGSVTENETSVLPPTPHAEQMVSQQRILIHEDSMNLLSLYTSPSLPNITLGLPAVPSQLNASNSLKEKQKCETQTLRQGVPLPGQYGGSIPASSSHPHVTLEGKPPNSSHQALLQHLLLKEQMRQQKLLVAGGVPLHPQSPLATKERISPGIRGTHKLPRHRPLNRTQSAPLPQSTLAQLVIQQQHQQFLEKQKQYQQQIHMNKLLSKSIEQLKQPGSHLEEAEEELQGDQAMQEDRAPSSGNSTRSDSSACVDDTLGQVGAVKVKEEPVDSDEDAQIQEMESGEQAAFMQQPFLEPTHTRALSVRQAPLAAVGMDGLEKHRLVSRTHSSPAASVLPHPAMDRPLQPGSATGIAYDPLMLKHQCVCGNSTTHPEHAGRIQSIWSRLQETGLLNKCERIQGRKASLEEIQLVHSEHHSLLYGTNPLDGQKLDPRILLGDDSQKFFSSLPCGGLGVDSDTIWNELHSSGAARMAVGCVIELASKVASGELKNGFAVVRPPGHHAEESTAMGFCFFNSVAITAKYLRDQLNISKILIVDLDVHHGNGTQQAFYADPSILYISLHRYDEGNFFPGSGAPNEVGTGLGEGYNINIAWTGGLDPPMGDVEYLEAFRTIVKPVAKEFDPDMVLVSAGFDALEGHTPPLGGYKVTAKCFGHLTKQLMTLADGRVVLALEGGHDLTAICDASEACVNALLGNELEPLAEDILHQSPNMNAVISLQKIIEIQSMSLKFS
Method: as §1

HDAC1 = HDAC1 (Homo sapiens, UniProt Q13547); experiment: HDAC enzymatic assay, HDAC1
HDAC1, sequence (Q13547 whole entry): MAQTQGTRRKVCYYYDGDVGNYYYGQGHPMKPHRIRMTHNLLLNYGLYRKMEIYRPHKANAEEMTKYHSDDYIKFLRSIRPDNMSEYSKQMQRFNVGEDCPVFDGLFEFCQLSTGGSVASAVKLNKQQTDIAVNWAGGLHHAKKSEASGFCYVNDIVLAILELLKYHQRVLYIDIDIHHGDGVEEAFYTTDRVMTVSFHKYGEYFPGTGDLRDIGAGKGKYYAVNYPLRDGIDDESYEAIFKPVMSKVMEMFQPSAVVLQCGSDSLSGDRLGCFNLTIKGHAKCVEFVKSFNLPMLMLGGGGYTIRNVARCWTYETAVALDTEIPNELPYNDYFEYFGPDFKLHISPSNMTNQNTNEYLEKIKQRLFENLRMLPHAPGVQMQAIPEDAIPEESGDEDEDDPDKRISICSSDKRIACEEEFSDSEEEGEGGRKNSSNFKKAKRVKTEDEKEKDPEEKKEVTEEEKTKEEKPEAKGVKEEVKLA
Method: as §1

HDAC5 = HDAC5 (Homo sapiens, UniProt Q9UQL6); experiment: HDAC enzymatic assay, HDAC5
HDAC5, sequence (Q9UQL6 whole entry): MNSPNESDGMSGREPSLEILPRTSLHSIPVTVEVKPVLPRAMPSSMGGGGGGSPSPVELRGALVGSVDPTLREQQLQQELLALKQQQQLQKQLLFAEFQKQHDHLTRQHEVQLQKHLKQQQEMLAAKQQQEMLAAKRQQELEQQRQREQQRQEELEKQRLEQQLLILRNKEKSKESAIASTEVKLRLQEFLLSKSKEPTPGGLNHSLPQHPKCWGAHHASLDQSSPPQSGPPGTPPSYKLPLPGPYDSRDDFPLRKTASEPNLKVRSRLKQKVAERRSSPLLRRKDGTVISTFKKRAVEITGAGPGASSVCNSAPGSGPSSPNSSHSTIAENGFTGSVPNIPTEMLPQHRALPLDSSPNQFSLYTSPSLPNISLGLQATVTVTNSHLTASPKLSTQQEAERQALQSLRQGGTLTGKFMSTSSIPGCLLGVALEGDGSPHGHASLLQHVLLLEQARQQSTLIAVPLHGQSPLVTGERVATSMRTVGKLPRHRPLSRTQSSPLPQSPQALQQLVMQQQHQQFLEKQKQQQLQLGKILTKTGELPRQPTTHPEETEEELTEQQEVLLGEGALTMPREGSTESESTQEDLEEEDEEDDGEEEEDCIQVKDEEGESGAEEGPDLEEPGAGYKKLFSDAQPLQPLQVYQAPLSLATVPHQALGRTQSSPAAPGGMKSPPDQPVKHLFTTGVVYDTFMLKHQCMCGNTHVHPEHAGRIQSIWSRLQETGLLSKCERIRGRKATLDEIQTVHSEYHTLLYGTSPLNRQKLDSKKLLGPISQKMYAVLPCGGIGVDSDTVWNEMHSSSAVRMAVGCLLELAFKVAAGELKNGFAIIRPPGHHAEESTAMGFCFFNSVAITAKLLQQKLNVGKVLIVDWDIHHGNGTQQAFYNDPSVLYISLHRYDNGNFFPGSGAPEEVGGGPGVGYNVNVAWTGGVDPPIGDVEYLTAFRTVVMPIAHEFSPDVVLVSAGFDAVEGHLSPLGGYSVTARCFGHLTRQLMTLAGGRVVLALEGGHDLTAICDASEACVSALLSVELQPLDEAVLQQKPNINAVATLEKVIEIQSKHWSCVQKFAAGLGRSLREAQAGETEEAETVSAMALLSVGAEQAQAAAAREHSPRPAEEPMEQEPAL
Method: as §1

HDAC4 = HDAC4 (Homo sapiens, UniProt P56524); experiment: HDAC enzymatic assay, HDAC4
HDAC4, sequence (P56524 whole entry): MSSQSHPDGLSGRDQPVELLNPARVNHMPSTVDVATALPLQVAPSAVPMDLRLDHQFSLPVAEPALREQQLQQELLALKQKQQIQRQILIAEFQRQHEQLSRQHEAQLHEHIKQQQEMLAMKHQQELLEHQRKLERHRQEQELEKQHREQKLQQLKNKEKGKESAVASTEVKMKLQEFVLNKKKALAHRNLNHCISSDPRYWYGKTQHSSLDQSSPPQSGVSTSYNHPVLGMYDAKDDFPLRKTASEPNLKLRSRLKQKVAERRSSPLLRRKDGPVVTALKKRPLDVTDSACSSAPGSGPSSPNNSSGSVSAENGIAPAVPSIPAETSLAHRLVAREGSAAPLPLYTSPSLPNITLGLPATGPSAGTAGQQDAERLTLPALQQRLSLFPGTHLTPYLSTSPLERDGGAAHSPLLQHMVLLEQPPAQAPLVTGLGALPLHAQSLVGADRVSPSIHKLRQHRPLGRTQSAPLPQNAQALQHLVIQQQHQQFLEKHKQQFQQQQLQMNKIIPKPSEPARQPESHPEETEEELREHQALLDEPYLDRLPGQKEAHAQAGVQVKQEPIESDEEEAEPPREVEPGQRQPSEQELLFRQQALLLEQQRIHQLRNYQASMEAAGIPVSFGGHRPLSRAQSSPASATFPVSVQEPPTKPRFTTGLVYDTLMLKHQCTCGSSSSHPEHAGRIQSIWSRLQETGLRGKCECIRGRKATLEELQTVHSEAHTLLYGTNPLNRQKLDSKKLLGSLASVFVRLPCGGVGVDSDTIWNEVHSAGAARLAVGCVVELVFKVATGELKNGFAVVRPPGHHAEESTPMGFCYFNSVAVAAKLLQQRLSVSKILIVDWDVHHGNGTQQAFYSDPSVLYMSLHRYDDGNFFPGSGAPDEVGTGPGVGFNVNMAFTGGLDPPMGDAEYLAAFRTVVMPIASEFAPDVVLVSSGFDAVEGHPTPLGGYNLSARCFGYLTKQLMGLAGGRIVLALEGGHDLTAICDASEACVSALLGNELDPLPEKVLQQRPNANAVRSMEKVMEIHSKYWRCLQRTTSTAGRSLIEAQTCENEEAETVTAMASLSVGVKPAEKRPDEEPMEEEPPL
Method: as §1

HDAC8 = biological target: T3, HDAC8 (Homo sapiens, UniProt Q9BY41); experiment: HDAC enzymatic assay, HDAC8
T3 sequence (Q9BY41 1-377): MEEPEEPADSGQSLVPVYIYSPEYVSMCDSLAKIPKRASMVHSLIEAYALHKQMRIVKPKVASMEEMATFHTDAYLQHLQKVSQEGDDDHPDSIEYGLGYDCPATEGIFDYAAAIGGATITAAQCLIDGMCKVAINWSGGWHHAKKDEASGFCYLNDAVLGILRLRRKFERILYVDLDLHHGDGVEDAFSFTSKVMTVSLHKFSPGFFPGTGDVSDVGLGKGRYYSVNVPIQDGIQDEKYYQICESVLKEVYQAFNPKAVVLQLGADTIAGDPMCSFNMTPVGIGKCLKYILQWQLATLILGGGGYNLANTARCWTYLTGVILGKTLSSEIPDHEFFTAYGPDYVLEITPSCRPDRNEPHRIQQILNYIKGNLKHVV
Method: as §1

HDAC2 = HDAC2 (Homo sapiens, UniProt Q92769); experiment: HDAC enzymatic assay, HDAC2
HDAC2, sequence (Q92769 whole entry): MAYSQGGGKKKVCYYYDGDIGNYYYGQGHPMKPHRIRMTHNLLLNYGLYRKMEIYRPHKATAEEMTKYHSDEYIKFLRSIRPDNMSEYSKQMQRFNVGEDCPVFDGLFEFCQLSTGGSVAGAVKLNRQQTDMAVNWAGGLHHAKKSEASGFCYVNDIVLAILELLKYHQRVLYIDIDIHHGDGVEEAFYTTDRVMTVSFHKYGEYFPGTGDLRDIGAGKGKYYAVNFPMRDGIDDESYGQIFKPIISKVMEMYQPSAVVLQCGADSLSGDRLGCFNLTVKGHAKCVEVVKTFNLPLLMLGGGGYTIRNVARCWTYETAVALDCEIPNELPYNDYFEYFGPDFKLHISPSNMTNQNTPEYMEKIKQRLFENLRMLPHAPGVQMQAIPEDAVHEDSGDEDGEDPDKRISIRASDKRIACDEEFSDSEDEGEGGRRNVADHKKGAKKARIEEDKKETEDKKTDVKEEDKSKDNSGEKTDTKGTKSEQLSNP
Method: as §1

HDAC11 = biological target: T4, HDAC11 (Homo sapiens, UniProt Q96DB2); experiment: HDAC enzymatic assay, HDAC11
T4 sequence (Q96DB2 1-347): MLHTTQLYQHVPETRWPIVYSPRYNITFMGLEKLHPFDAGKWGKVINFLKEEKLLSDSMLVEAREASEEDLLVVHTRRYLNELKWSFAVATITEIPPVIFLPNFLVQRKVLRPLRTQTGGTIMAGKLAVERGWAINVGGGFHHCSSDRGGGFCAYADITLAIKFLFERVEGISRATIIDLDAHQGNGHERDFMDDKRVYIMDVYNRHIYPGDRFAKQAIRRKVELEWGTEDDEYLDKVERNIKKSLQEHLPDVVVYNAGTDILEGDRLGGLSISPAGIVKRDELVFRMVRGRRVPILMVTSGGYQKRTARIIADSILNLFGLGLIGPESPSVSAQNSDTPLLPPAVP
Method: as §1

[2] = Table 2, thio (SH) vs hydroxamate (CONHOH) MBG analogues, read-out: HDAC isoforms, 3 (IC50)
[3] = fluorogenic tetrapeptide RHKKAc substrate 10 μM, read-out: HDAC isoforms IC50 (nM), 3
[4] = Table 2, thio (SH) vs hydroxamate (CONHOH) MBG analogues, read-out: HDAC isoforms, 7 (IC50)
[5] = fluorogenic tetrapeptide RHKKAc substrate 10 μM, read-out: HDAC isoforms IC50 (nM), 7
[6] = Table 2, thio (SH) vs hydroxamate (CONHOH) MBG analogues, read-out: HDAC isoforms, 9 (IC50)
[7] = fluorogenic tetrapeptide RHKKAc substrate 10 μM, read-out: HDAC isoforms IC50 (nM), 9
[8] = Table 2, thio (SH) vs hydroxamate (CONHOH) MBG analogues, read-out: HDAC isoforms, 1 (IC50)
[9] = fluorogenic tetrapeptide RHKKAc substrate 10 μM, read-out: HDAC isoforms IC50 (nM), 1
[10] = Table 2, thio (SH) vs hydroxamate (CONHOH) MBG analogues, read-out: HDAC isoforms, 5 (IC50)
[11] = fluorogenic tetrapeptide RHKKAc substrate 10 μM, read-out: HDAC isoforms IC50 (nM), 5
[12] = Table 2, thio (SH) vs hydroxamate (CONHOH) MBG analogues, read-out: HDAC isoforms, 4 (IC50)
[13] = fluorogenic tetrapeptide RHKKAc substrate 10 μM, read-out: HDAC isoforms IC50 (nM), 4
[14] = Table 2, thio (SH) vs hydroxamate (CONHOH) MBG analogues, read-out: HDAC isoforms, 8 (IC50)
[15] = fluorogenic tetrapeptide RHKKAc substrate 10 μM, read-out: HDAC isoforms IC50 (nM), 8
[16] = Table 2, thio (SH) vs hydroxamate (CONHOH) MBG analogues, read-out: HDAC isoforms, 2 (IC50)
[17] = fluorogenic tetrapeptide RHKKAc substrate 10 μM, read-out: HDAC isoforms IC50 (nM), 2
[18] = Table 2, thio (SH) vs hydroxamate (CONHOH) MBG analogues, read-out: HDAC isoforms, 11 (IC50)
[19] = fluorogenic tetrapeptide RHKKAc substrate 10 μM, read-out: HDAC isoforms IC50 (nM), 11

Structure (SMILES) | IC50 [1, 2] [nM] | IC50 [1, 3] [nM] | IC50 (HDAC7; [4]) [nM] | IC50 (HDAC7; [5]) [nM] | IC50 (HDAC9; [6]) [nM] | IC50 (HDAC9; [7]) [nM] | IC50 (HDAC1; [8]) [nM] | IC50 (HDAC1; [9]) [nM] | IC50 (HDAC5; [10]) [nM] | IC50 (HDAC5; [11]) [nM] | IC50 (HDAC4; [12]) [nM] | IC50 (HDAC4; [13]) [nM] | IC50 (HDAC8; [14]) [nM] | IC50 (HDAC8; [15]) [nM] | IC50 (HDAC2; [16]) [nM] | IC50 (HDAC2; [17]) [nM] | IC50 (HDAC11; [18]) [nM] | IC50 (HDAC11; [19]) [nM]
O=C1NC[C@@H](c2ccccc2)[C@@H]1C(=O)N[C@@H](CCCCCS)C(=O)Nc1ccccc1 [Example 31, (3S,4R)-2-Oxo-4-phenyl-pyrrolidine-3-carboxylic acid ((S)-6-mercapto-1-phenylcarbamoyl-hexyl)-amide] | < 50 | < 50 | < 50 | < 50 | < 50 | < 50 | < 50 | < 50 | < 50 | < 50 | < 50 | < 50 | < 50 | < 50 | < 50 | < 50 | < 50 | < 50
O=C1NCCC[C@H]1C(=O)N[C@@H](CCCCCS)C(=O)Nc1ccccc1 [Example 35, (R)-2-Oxo-piperidine-3-carboxylic acid ((S)-6-mercapto-1-phenylcarbamoyl-hexyl)amide] |  | < 50 |  | < 50 |  | < 50 |  | < 50 |  | < 50 |  | < 50 |  | 50 to 100 |  | < 50 |  | < 50
Cc1cccc(CCNC(=O)[C@H](CCCCCS)NC(=O)[C@@H]2CCCC(=O)N2)c1 [Example 34, (S)-6-Oxo-piperidine-2-carboxylic acid [(S)-6-mercapto-1-(2-m-tolyl-ethylcarbamoyl)hexyl]-amide] |  | 100 to 500 |  | 100 to 500 |  | 100 to 500 |  | 50 to 100 |  | 100 to 500 |  | < 50 |  | < 50 |  | 100 to 500 |  | 50 to 100
CN1C(=O)CCC[C@H]1C(=O)N[C@@H](CCCCCS)C(=O)Nc1ccccc1 [Example 40, (S)-1-Methyl-6-oxo-piperidine-2-carboxylic acid ((S)-6-mercapto-1-phenylcarbamoyl-hexyl)-amide] |  | < 50 |  | < 50 |  | < 50 |  | < 50 |  | < 50 |  | 100 to 500 |  | 100 to 500 |  | 50 to 100 |  | < 50
O=C1CCC[C@H](C(=O)N[C@@H](CCCCCS)C(=O)Nc2ccccc2)N1 [Example 37, (R)-6-Oxo-piperidine-2-carboxylic acid ((S)-6-mercapto-1-phenylcarbamoyl-hexyl)amide] |  | < 50 |  | 100 to 500 |  | < 50 |  | < 50 |  | < 50 |  | < 50 |  | 100 to 500 |  | < 50 |  | < 50
CC(=O)SCCCCC[C@H](NC(=O)[C@H]1CCC(=O)N1)C(=O)Nc1ccccc1 [Example 21, Thioacetic acid S—{(S)-6-[((R)-5-oxo-pyrrolidine-2-carbonyl)-amino]-6-phenylcarbamoyl-hexyl}ester] | < 50 |  | < 50 |  | < 50 |  | < 50 |  | < 50 |  | < 50 |  | 100 to 500 |  | 50 to 100 |  | < 50 | 
O=C1CCC[C@@H](C(=O)N[C@@H](CCCCCS)C(=O)NCc2ccc(C(F)(F)F)cc2)N1 [Example 26, (S)-6-Oxo-piperidine-2-carboxylic acid [(S)-6-mercapto-1-(4-trifluoromethyl-benzylcarbamoyl)-hexyl]-amide] |  | 100 to 500 |  | 100 to 500 |  | 100 to 500 |  | 100 to 500 |  | 100 to 500 |  | < 50 |  | < 50 |  | 100 to 500 |  | 100 to 500
O=C1C[C@@H](C(=O)N[C@@H](CCCCCS)C(=O)Nc2ccccc2)N1 [Example 27, (S)-4-Oxo-azetidine-2-carboxylic acid ((S)-6-mercapto-1-phenylcarbamoyl-hexyl)amide] |  | < 50 |  | < 50 |  | < 50 |  | < 50 |  | < 50 |  | 100 to 500 |  | 50 to 100 |  | 50 to 100 |  | < 50
